In ChEMBL document CHEMBL4804286, “3-amino-4-(4-(4 (dimethylcarbamoyl) phenyl)-1,4-diazepan-1-yl) thieno [2,3-b] pyridine-2-carboxamide for use in cancer therapy and formulations comprising the same” (2020):
Where “and” joins values, the source holds several entries; their conditions need not be identical. Equal entries are not always repeated. Calls of active or inactive are those of the source. The calls are words filed in the database; no cut-off is given here.

Tests used:
[1] = biological target: Protein kinase C iota type (Homo sapiens) (UniProt P41743); assay: Inhibition of human PRKCI assessed as percent of control at 2000 nM by KINOMEscan assay relative to control; design: scale not given: the % may be the effect or the level left
[2] = biological target: Interleukin-1 receptor-associated kinase 1 (Homo sapiens) (UniProt P51617); assay: Inhibition of human IRAK1 assessed as percent of control at 2000 nM by KINOMEscan assay relative to control; design: scale not given: the % may be the effect or the level left
[3] = system: Phosphatidylinositol 4,5-bisphosphate 3-kinase catalytic subunit alpha isoform (Homo sapiens), P42336 [E542K]; assay: Inhibition of human PIK3CA E542K mutant assessed as percent of control at 2000 nM by KINOMEscan assay relative to control; design: scale not given: the % may be the effect or the level left
[4] = biological target: Cyclin-dependent kinase 8/19 (Homo sapiens, UniProt P49336+Q9BWU1); settings: ST-2
Description: Inhibition of CDK8/CDK19 in ST2 cells by alkaline phosphatase activity assay

[5] = biological target: Cyclin-dependent kinase 19 (Homo sapiens) (UniProt Q9BWU1); assay: Inhibition of human CDK11 assessed as percent of control at 2000 nM by KINOMEscan assay relative to control; design: scale not given: the % may be the effect or the level left; settings: INHIBITOR
[6] = biological target: 1-phosphatidylinositol 3-phosphate 5-kinase (Homo sapiens) (UniProt Q9Y2I7); assay: Inhibition of human PIKFYVE assessed as percent of control at 2000 nM by KINOMEscan assay relative to control; design: scale not given: the % may be the effect or the level left
[7] = biological target: Tyrosine-protein kinase JAK3 (Homo sapiens) (UniProt P52333); assay: Inhibition of human JAK3 JH1 catalytic domain assessed as percent of control at 2000 nM by KINOMEscan assay relative to control; design: scale not given: the % may be the effect or the level left
[8] = biological target: STE20-like serine/threonine-protein kinase (Homo sapiens) (UniProt Q9H2G2); assay: Inhibition of human SLK assessed as percent of control at 2000 nM by KINOMEscan assay relative to control; design: scale not given: the % may be the effect or the level left
[9] = biological target: Phosphorylase b kinase gamma catalytic chain, liver/testis isoform (Homo sapiens) (UniProt P15735); assay: Inhibition of human PHKG2 assessed as percent of control at 2000 nM by KINOMEscan assay relative to control; design: scale not given: the % may be the effect or the level left
[10] = biological target: Tyrosine-protein kinase ABL1 (Homo sapiens) (UniProt P00519); assay: Inhibition of phosphorylated human ABL1 assessed as percent of control at 2000 nM by KINOMEscan assay relative to control; design: scale not given: the % may be the effect or the level left
[11] = biological target: Phosphatidylinositol 4-phosphate 5-kinase type-1 alpha (Homo sapiens) (UniProt Q99755); assay: Inhibition of human PIP5K1A assessed as percent of control at 2000 nM by KINOMEscan assay relative to control; design: scale not given: the % may be the effect or the level left
[12] = biological target: Cyclin-dependent kinase 18 (Homo sapiens) (UniProt Q07002); assay: Inhibition of human PCTK3 assessed as percent of control at 2000 nM by KINOMEscan assay relative to control; design: scale not given: the % may be the effect or the level left
[13] = biological target: Leukocyte tyrosine kinase receptor (Homo sapiens) (UniProt P29376); assay: Inhibition of human LTK assessed as percent of control at 2000 nM by KINOMEscan assay relative to control; design: scale not given: the % may be the effect or the level left
[14] = biological target: Phosphatidylinositol 4,5-bisphosphate 3-kinase catalytic subunit delta isoform (Homo sapiens) (UniProt O00329); assay: Inhibition of human PIK3CD assessed as percent of control at 2000 nM by KINOMEscan assay relative to control; design: scale not given: the % may be the effect or the level left
[15] = biological target: Calcium/calmodulin-dependent protein kinase type 1 (Homo sapiens) (UniProt Q14012); assay: Inhibition of human CAMK1 assessed as percent of control at 2000 nM by KINOMEscan assay relative to control; design: scale not given: the % may be the effect or the level left
[16] = biological target: BDNF/NT-3 growth factors receptor (Homo sapiens) (UniProt Q16620); assay: Inhibition of human TRKB assessed as percent of control at 2000 nM by KINOMEscan assay relative to control; design: scale not given: the % may be the effect or the level left
[17] = biological target: NT-3 growth factor receptor (Homo sapiens) (UniProt Q16288); assay: Inhibition of human TRKC assessed as percent of control at 2000 nM by KINOMEscan assay relative to control; design: scale not given: the % may be the effect or the level left
[18] = biological target: Receptor-interacting serine/threonine-protein kinase 2 (Homo sapiens) (UniProt O43353); assay: Inhibition of human RIPK2 assessed as percent of control at 2000 nM by KINOMEscan assay relative to control; design: scale not given: the % may be the effect or the level left
[19] = biological target: Platelet-derived growth factor receptor beta (Homo sapiens) (UniProt P09619); assay: Inhibition of human PDGFRB assessed as percent of control at 2000 nM by KINOMEscan assay relative to control; design: scale not given: the % may be the effect or the level left
[20] = biological target: Mitogen-activated protein kinase kinase kinase kinase 4 (Homo sapiens) (UniProt O95819); assay: Inhibition of human MAP4K4 assessed as percent of control at 2000 nM by KINOMEscan assay relative to control; design: scale not given: the % may be the effect or the level left
[21] = biological target: Mitogen-activated protein kinase kinase kinase kinase 2 (Homo sapiens) (UniProt Q12851); assay: Inhibition of human MAP4K2 assessed as percent of control at 2000 nM by KINOMEscan assay relative to control; design: scale not given: the % may be the effect or the level left
[22] = biological target: Rhodopsin kinase GRK1 (Homo sapiens) (UniProt Q15835); assay: Inhibition of human GRK1 assessed as percent of control at 2000 nM by KINOMEscan assay relative to control; design: scale not given: the % may be the effect or the level left
[23] = system: Tyrosine-protein kinase ABL1 (Homo sapiens), P00519 [F317I]; assay: Inhibition of non-phosphorylated human ABL1 F317I mutant assessed as percent of control at 2000 nM by KINOMEscan assay relative to control; design: scale not given: the % may be the effect or the level left
[24] = biological target: Interferon-induced, double-stranded RNA-activated protein kinase (Homo sapiens) (UniProt P19525); assay: Inhibition of human PRKR assessed as percent of control at 2000 nM by KINOMEscan assay relative to control; design: scale not given: the % may be the effect or the level left
CWR22R = assay: Antitumor activity against human 22Rv1 cells expressing AR-V7 xenografted in male nude mouse assessed as suppression of tumor growth at 25 mg/kg, administered twice a day for 40 days; type: functional, organism-based
[25] = system: Tyrosine-protein kinase ABL1 (Homo sapiens), P00519 [UNDEFINED MUTATION]; assay: Inhibition of phosphorylated human ABL1 […] mutant assessed as percent of control at 2000 nM by KINOMEscan assay relative to control; design: scale not given: the % may be the effect or the level left
[26] = biological target: Death-associated protein kinase 1 (Homo sapiens) (UniProt P53355); assay: Inhibition of human DAPK1 assessed as percent of control at 2000 nM by KINOMEscan assay relative to control; design: scale not given: the % may be the effect or the level left
[27] = biological target: Dual specificity mitogen-activated protein kinase kinase 5 (Homo sapiens) (UniProt Q13163); assay: Inhibition of human MEK5 assessed as percent of control at 2000 nM by KINOMEscan assay relative to control; design: scale not given: the % may be the effect or the level left
[28] = biological target: Homeodomain-interacting protein kinase 2 (Homo sapiens) (UniProt Q9H2X6); assay: Inhibition of human HIPK2 assessed as percent of control at 2000 nM by KINOMEscan assay relative to control; design: scale not given: the % may be the effect or the level left
[29] = biological target: Cyclin-dependent kinase 7 (Homo sapiens) (UniProt P50613); assay: Inhibition of human CDK7 assessed as percent of control at 2000 nM by KINOMEscan assay relative to control; design: scale not given: the % may be the effect or the level left
[30] = system: Mast/stem cell growth factor receptor Kit (Homo sapiens), P10721 [D816V]; assay: Inhibition of human KIT D816V mutant assessed as percent of control at 2000 nM by KINOMEscan assay relative to control; design: scale not given: the % may be the effect or the level left

Interleukin-1 receptor-associated kinase 1 (Homo sapiens), sequence (P51617 whole entry, looked up, canonical isoform): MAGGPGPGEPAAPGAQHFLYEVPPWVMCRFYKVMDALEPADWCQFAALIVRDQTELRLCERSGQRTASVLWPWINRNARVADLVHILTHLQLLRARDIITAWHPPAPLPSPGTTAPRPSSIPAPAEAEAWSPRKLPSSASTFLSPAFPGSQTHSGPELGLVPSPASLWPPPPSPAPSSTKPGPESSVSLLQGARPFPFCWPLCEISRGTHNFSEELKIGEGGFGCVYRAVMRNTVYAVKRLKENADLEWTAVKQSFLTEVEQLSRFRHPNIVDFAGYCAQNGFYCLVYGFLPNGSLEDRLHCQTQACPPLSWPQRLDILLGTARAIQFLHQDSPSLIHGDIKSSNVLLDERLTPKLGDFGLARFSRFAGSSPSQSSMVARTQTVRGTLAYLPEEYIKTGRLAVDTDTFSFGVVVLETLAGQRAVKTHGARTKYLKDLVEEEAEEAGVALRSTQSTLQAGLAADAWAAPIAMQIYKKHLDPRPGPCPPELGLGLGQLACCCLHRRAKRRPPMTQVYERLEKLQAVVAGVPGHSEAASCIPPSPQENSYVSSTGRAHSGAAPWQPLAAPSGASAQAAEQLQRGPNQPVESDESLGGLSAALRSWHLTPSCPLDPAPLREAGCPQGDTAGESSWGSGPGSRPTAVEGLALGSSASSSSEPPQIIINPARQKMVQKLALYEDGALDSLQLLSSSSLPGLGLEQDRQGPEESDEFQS
Rhodopsin kinase GRK1 (Homo sapiens), sequence (Q15835 whole entry): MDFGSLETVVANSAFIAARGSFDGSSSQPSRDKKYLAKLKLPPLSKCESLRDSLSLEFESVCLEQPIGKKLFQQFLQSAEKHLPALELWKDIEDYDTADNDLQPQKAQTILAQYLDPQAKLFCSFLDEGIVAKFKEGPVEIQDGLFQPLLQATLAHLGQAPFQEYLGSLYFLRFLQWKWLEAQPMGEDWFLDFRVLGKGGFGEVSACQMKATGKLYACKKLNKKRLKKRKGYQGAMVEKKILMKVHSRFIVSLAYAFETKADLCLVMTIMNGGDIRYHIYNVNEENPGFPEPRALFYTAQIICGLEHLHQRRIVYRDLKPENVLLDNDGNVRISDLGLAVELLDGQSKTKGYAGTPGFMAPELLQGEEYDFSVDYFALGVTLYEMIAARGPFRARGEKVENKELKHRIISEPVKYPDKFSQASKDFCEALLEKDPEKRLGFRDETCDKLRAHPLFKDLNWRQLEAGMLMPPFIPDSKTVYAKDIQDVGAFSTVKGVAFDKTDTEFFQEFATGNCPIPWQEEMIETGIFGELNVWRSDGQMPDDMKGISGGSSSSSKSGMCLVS
Phosphorylase b kinase gamma catalytic chain, liver/testis isoform (Homo sapiens), sequence (P15735 whole entry, canonical isoform): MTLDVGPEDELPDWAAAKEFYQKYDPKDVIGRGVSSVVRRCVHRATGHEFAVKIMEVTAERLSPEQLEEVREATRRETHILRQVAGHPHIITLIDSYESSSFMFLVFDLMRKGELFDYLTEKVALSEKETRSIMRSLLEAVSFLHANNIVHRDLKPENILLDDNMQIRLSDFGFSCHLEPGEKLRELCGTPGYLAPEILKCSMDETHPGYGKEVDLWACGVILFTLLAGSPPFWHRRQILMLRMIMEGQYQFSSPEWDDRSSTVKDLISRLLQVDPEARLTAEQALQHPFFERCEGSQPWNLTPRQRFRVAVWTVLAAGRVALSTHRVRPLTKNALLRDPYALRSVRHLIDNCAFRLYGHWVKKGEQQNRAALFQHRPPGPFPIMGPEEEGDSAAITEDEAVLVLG
Cyclin-dependent kinase 18 (Homo sapiens), sequence (Q07002 whole entry): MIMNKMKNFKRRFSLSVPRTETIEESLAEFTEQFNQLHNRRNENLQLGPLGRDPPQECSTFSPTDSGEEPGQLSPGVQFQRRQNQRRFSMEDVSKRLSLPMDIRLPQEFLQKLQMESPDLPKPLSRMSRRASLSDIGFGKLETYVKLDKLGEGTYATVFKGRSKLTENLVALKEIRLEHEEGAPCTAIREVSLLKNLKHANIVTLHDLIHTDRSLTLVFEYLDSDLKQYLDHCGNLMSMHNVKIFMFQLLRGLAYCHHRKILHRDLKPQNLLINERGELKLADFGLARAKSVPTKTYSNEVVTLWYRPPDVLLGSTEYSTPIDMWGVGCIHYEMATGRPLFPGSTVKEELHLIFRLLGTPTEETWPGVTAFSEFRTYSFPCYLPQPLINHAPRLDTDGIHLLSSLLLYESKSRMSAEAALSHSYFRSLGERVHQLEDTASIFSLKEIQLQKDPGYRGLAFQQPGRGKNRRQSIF
Phosphatidylinositol 4-phosphate 5-kinase type-1 alpha (Homo sapiens), sequence (Q99755 whole entry): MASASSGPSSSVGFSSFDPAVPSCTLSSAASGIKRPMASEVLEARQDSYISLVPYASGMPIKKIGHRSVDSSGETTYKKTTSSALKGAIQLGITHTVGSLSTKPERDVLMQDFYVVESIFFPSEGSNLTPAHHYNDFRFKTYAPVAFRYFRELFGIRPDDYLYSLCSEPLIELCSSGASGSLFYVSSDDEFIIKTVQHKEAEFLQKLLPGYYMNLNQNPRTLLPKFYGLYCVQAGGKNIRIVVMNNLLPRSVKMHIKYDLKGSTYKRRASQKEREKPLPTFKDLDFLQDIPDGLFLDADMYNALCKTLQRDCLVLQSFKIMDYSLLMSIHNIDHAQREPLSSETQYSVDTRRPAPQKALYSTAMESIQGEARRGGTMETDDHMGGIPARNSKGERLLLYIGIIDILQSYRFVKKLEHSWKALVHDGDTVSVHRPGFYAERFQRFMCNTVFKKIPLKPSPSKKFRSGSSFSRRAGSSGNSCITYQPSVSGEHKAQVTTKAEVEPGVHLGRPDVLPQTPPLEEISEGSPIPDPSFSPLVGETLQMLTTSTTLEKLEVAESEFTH
Tyrosine-protein kinase ABL1 (Homo sapiens), P00519 [UNDEFINED MUTATION], sequence (P00519 whole entry, looked up, change not shown): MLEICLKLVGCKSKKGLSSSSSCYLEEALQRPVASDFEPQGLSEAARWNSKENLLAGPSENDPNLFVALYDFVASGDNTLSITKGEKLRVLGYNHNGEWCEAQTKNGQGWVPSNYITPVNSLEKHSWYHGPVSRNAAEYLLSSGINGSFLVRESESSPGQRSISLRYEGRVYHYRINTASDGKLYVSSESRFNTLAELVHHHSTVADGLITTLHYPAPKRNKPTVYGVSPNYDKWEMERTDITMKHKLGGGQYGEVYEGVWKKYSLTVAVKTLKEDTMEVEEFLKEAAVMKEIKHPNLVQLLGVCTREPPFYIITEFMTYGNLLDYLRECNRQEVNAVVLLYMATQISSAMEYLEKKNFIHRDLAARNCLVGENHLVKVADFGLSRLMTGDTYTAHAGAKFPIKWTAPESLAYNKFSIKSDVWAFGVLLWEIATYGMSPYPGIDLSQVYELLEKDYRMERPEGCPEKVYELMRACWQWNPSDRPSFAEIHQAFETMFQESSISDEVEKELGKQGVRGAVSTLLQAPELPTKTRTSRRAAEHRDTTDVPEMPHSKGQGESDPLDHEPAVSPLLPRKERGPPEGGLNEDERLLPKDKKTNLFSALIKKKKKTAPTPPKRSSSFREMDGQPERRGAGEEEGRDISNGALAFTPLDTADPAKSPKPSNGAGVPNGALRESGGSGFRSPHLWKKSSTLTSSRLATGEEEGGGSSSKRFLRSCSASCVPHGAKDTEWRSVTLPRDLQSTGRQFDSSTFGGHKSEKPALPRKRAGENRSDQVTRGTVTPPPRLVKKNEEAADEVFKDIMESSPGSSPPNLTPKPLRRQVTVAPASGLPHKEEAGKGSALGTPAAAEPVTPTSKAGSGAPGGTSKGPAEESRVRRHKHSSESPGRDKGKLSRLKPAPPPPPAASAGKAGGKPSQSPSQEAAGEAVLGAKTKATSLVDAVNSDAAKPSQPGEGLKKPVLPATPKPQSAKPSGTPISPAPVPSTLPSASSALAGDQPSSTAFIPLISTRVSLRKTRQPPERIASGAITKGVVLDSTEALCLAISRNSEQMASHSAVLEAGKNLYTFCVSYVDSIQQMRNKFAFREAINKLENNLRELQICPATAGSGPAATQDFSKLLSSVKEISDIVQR
Tyrosine-protein kinase ABL1 (Homo sapiens), sequence (P00519 whole entry): as the sequence (P00519 whole entry, looked up, change not shown) above

SMILES: CN(C)C(=O)c1ccc(N2CCCN(c3ccnc4sc(C(N)=O)c(N)c34)CC2)cc1
- Activity [1]: 100%
- Activity [2]: 94% and 84%
- Activity [3]: 92% and 74%
- EC200 [4]: 31.9 nM
- Activity [5]: 13% and 0%
- Activity [6]: 91% and 98%
- Activity [7]: 83% and 80%
- Activity [8]: 56% and 54%
- Activity [9]: 86% and 83%
- Activity [10]: 90% and 77%
- Activity [11]: 100%
- Activity [12]: 100%
- Activity [13]: 90% and 77%
- Activity [14]: 94% and 71%
- Activity [15]: 83% and 95%
- Activity [16]: 88% and 78%
- Activity [17]: 91% and 85%
- Activity [18]: 100% and 93%
- Activity [19]: 100% and 93%
- Activity [20]: 100% and 93%
- Activity [21]: 84% and 66%
- Activity [22]: 98% and 81%
- Activity [23]: 100% and 93%
- Activity [24]: 100%
- Activity (CWR22R): Active
- Activity [25]: 94% and 77%
- Activity [26]: 92% and 88%
- Activity [27]: 86% and 65%
- Activity [28]: 100% and 81%
- Activity [29]: 100% and 78%
- Activity [30]: 93% and 79%
